Measurements reported in patent US4590178A (Ajinomoto Company, Incorporated, priority 1982, dated 1986).

Assays:
[1] = system: spontaneously hypertensive rats; experiment: Antihypertensive activity: systolic blood pressure measured indirectly on conscious SHR after peroral dosing; type: in vivo, rat; settings: for Systolic Blood Pressure, Pretreatment: SHR (male, 13 months, 2 per sample), before 35 mg/kg peroral single dose; for Systolic Blood Pressure, 4 hrs after administration / Δ Blood Pressure: SHR; for Systolic Blood Pressure, 4 hrs after administration: 4 hours after 35 mg/kg peroral single dose; for Δ Blood Pressure: 4 hours after 35 mg/kg peroral single dose versus pretreatment
Procedure: The antihypertensive activity of part of the amino acid derivatives prepared above, was determined.
As subject animals 2 SHR were used which had been trained enough and been confirmed to be hypertensive spontaneously hypertensive rats (male, 13 months of age, the body weight of 400 to 440 g) per sample.
As an instrument for measuring the blood pressure a Programmed Electro-Sphygmomanometer PE-300 (Narco Co., U.S.A.) was used, and the blood pressure was indirectly measured on conscious rats.
An aqueous solution or suspension of a sample (35 mg/kg) was once force-fed into the stomach by means of a peroral probe.
An antihypertensive activity of part of the amino acid derivatives prepared above was determined.
As subject animals there were used 2 SHR which had been trained enough and been confirmed to be hypertensive spontaneously hypertensive rats (male, 13 months of age, the body weight of 400~440 g) per sample.
As an instrument for measuring the blood pressure there was used Programmed Electro-Sphygmomanometer PE-300 (Narco Co., U.S.A.), and the blood pressure was indirectly measured on conscious rats.
An antihypertensive activity of the product prepared above was determined.

[2] = 27.7° C.

O=C(O)CC[C@H](NP(=O)(OCc1ccccc1)OCc1ccccc1)C(=O)N1CCC[C@H]1C(=O)N1CCC[C@H]1C(=O)O [Example 22, Dibenzylphosphoryl-L-glutamyl-L-propyl-L-proline]
Systolic Blood Pressure, Pretreatment [1]: 206 mm Hg
Systolic Blood Pressure, 4 hrs after administration [1]: 196 mm Hg
Δ Blood Pressure [1]: -10 mm Hg

C[C@H](NP(=O)(CCc1ccccc1)OCc1ccccc1)C(=O)N1CCC[C@H]1C(=O)N1CCC[C@H]1C(=O)OCc1ccccc1 (stereo partly drawn) [Example 26, N-(O-benzyl-P-phenethylphosphonyl)-L-alanyl-L-prolyl-L-proline benzylester]
Systolic Blood Pressure, Pretreatment [1]: 182 mm Hg
Systolic Blood Pressure, 4 hrs after administration [1]: 160 mm Hg
Δ Blood Pressure [1]: -22 mm Hg

C[C@H](NP(=O)(OCc1ccccc1)OCc1ccccc1)C(=O)N1CCC[C@H]1C(=O)N1CCC[C@H]1C(=O)O [Example 84, Dibenzylphosphoryl-L-alanyl-L-propyl-L-proline in the crystalline form]
Systolic Blood Pressure, Pretreatment [1]: 219 mm Hg
Systolic Blood Pressure, 4 hrs after administration [1]: 188 mm Hg
Δ Blood Pressure [1]: -31 mm Hg
.rho.Ka [2]: 3.92
Median lethal dose (LD50) (rat): more than 15 g/kg
Median lethal dose (LD50) (mouse): more than 15 g/kg

Diethylphosphoryl-L-lysyl-L-prolyl-L-proline L-arginine salt [Example 23]
Systolic Blood Pressure, Pretreatment [1]: 190 mm Hg
Systolic Blood Pressure, 4 hrs after administration [1]: 165 mm Hg
Δ Blood Pressure [1]: -25 mm Hg

Diethylphosphoryl-L-alanyl-L-prolyl-L-proline L-arginine salt [Example 25]
Systolic Blood Pressure, Pretreatment [1]: 183 mm Hg
Systolic Blood Pressure, 4 hrs after administration [1]: 156 mm Hg
Δ Blood Pressure [1]: -27 mm Hg

C[C@H](NP(=O)(OCc1ccccc1)OCc1ccccc1)C(=O)N1CCC[C@H]1C(=O)O.NC(N)=NCCC[C@H](N)C(=O)O [*, Dibenzyl phosphorylL-alanyl-L-proline Larginine salt, reference compound]
Systolic Blood Pressure, Pretreatment [1]: 198 mm Hg
Systolic Blood Pressure, 4 hrs after administration [1]: 193 mm Hg
Δ Blood Pressure [1]: -5 mm Hg

COP(=O)(CCc1ccccc1)N[C@@H](CCSC)C(=O)N1CCC[C@H]1C(=O)N1CCC[C@H]1C(=O)O.NC(N)=NCCC[C@H](N)C(=O)O (stereo partly drawn) [Example 41, N--(O--methyl-P--phenethylphosphonyl)-L-methionyl-L-prolyl-L-proline L-arginine salt]
Systolic Blood Pressure, Pretreatment [1]: 203 mm Hg
Systolic Blood Pressure, 4 hrs after administration [1]: 172 mm Hg
Δ Blood Pressure [1]: -31 mm Hg

CSCC[C@H](NP(=O)(CCc1ccccc1)OCc1ccccc1)C(=O)N1CCC[C@H]1C(=O)N1CCC[C@H]1C(=O)[O-].CSCC[C@H](NP(=O)(CCc1ccccc1)OCc1ccccc1)C(=O)N1CCC[C@H]1C(=O)N1CCC[C@H]1C(=O)[O-].[Ca+2] (stereo partly drawn) [Example 55, N-(O-Benzyl-P-phenethylphosphonyl)-L-methionyl-L-prolyl-L-proline calcium salt]
Systolic Blood Pressure, Pretreatment [1]: 210 mm Hg
Systolic Blood Pressure, 4 hrs after administration [1]: 180 mm Hg
Δ Blood Pressure [1]: -30 mm Hg

C[C@H](NP(=O)(CCc1ccccc1)OCc1ccccc1)C(=O)N(CC(=O)N1CCC[C@H]1C(=O)O)C1Cc2ccccc2C1.NC(N)=NCCC[C@H](N)C(=O)O (stereo partly drawn) [Example 30, N-(O-Benzyl-P-phenethylphosphonyl)-L-alanyl-N-(2-indanyl)glycyl-L-proline L-arginine salt]
Systolic Blood Pressure, Pretreatment [1]: 184 mm Hg
Systolic Blood Pressure, 4 hrs after administration [1]: 154 mm Hg
Δ Blood Pressure [1]: -30 mm Hg

N-Phenethylphosphonyl-L-methionyl-L-prolyl-L-proline 2 sodium salt [Example 34]
Systolic Blood Pressure, Pretreatment [1]: 183 mm Hg
Systolic Blood Pressure, 4 hrs after administration [1]: 154 mm Hg
Δ Blood Pressure [1]: -29 mm Hg

C[C@H](NP(=O)(OCc1ccccc1)OCc1ccccc1)C(=O)N1CCC[C@H]1C(=O)N[C@@H](Cc1ccccc1)C(=O)O.N=C(N)NCCC[C@H](N)C(=O)O [Example 5, Dibenzylphosphoryl-L-alanyl-L-prolyl-L-phenylalanyl L-arginine salt]
Systolic Blood Pressure, Pretreatment [1]: 188 mm Hg
Systolic Blood Pressure, 4 hrs after administration [1]: 173 mm Hg
Δ Blood Pressure [1]: -15 mm Hg

Dibenzylphosphoryl-L-alanyl-L-prolyl-L-proline calcium salt [Example 53]
Systolic Blood Pressure, Pretreatment [1]: 220 mm Hg
Systolic Blood Pressure, 4 hrs after administration [1]: 188 mm Hg
Δ Blood Pressure [1]: -32 mm Hg

Dibenzylphosphoryl-L-alanyl-L-prolyl-D-proline L-arginine salt [Example 15]
Systolic Blood Pressure, Pretreatment [1]: 182 mm Hg
Systolic Blood Pressure, 4 hrs after administration [1]: 167 mm Hg
Δ Blood Pressure [1]: -15 mm Hg

Dibenzylphoshoryl-L-alanyl-L-prolyl-L-alanine L-arginine salt [Example 12]
Systolic Blood Pressure, Pretreatment [1]: 193 mm Hg
Systolic Blood Pressure, 4 hrs after administration [1]: 182 mm Hg
Δ Blood Pressure [1]: -11 mm Hg

C[C@H](NP(=O)(CCc1ccccc1)OCc1ccccc1)C(=O)N1CCC[C@H]1C(=O)N1CCC[C@H]1C(=O)[O-].[Na+] (stereo partly drawn) [Example 42, N--(O--benzyl-P--phenethylphosphonyl)-L-alanyl-L-prolyl-L-proline sodium salt]
Systolic Blood Pressure, Pretreatment [1]: 194 mm Hg
Systolic Blood Pressure, 4 hrs after administration [1]: 180 mm Hg
Δ Blood Pressure [1]: -14 mm Hg

C[C@H](NP(=O)(OCc1ccccc1)OCc1ccccc1)C(=O)N1CCC[C@H]1C(=O)N1CCC[C@H]1C(=O)[O-].[K+] [Example 32, Dibenzylphosporyl-L-alanyl-L-propyl-L-Proline potassium salt]
Systolic Blood Pressure, Pretreatment [1]: 185 mm Hg
Systolic Blood Pressure, 4 hrs after administration [1]: 160 mm Hg
Δ Blood Pressure [1]: -25 mm Hg

CCOP(=O)(CCc1ccccc1)N[C@@H](CCSC)C(=O)N1CCC[C@H]1C(=O)N1CCC[C@H]1C(=O)O.NC(N)=NCCC[C@H](N)C(=O)O (stereo partly drawn) [Example 40, N--(O--ethyl-P--phenethylphosphonyl)-L-methionyl-L-prolyl-L-proline L-arginine salt]
Systolic Blood Pressure, Pretreatment [1]: 196 mm Hg
Systolic Blood Pressure, 4 hrs after administration [1]: 166 mm Hg
Δ Blood Pressure [1]: -30 mm Hg

NCCCC[C@H](NP(=O)(O)CCc1ccccc1)C(=O)N1CCC[C@H]1C(=O)N1CCC[C@H]1C(=O)[O-].NCCCC[C@H](NP(=O)(O)CCc1ccccc1)C(=O)N1CCC[C@H]1C(=O)N1CCC[C@H]1C(=O)[O-].[Na+].[Na+] [Example 36, N^α -Phenethylphosphonyl-L-lysyl-L-prolyl-L-proline 2 sodium salt]
Systolic Blood Pressure, Pretreatment [1]: 200 mm Hg
Systolic Blood Pressure, 4 hrs after administration [1]: 177 mm Hg
Δ Blood Pressure [1]: -23 mm Hg

Diethylphosphoryl-L-lysyl-L-prolyl-L-proline calcium salt [Example 56]
Systolic Blood Pressure, Pretreatment [1]: 204 mm Hg
Systolic Blood Pressure, 4 hrs after administration [1]: 181 mm Hg
Δ Blood Pressure [1]: -23 mm Hg
